system: DK-PGD2-induced IL-13 production in T helper type 2 (Th2) cells; assay: DK-PGD2-Induced IL-13 Production Assay in Th2 Cells; format: cell-based; conditions: human Th2 cells; 500 nM DK-PGD2; 4 hrs at 37° C.; 10% human AB serum; ELISA; read-out: IC50 value, inhibition of IL-13 production
Experimental: Cultures of Th2 cells were established from blood of healthy human volunteers according to the following procedure. Peripheral blood mononuclear cells (PBMC) were first isolated from 50 mL of fresh blood by Ficoll-Hypaque density gradient centrifugation, followed by CD4^+ cell purification using a CD4^+ T Cell Isolation Kit II (from Miltenyi Biotec Inc.). The CD4^+ T cells were then differentiated to Th2 cells by culturing the cells in X-VIVO 15® medium (from Cambrex BioScience Walkersville Inc.) containing 10% human AB serum (serum of blood type AB from Invitrogen Corporation), 50 U/mL of recombinant human interleukin-2 (rhIL-2) (from PeproTech Inc.) and 100 ng/mL of recombinant human interleukin-4 (rhIL-4) (from PeproTech Inc.) for 7 days. The Th2 cells were isolated using a CD294 (CRTH2) MicroBead Kit (from Miltenyi Biotec Inc.) and amplified in X-VIVO 15® medium containing 10% human AB serum and 50 U/mL of rhIL-2 for 2 to 5 weeks. In general, 70% to 80% of the Th2 cells used in the assay are CRTH2-positive when analyzed by fluorescence-activated cell sorting using the BM16 antibody (as previously described) conjugated to phycoerythrin (PE).
To determine cellular inhibitory potency, compounds at various concentrations were incubated with 2.5×10^4 Th2 cells and 500 nM DK-PGD2 for 4 hrs at 37° C. in 200 μL of X-VIVO 15® medium containing 10% human AB serum. […] The spontaneous production of IL-13 by Th2 cells was determined in the absence of DK-PGD2 stimulation and the value was subtracted from that in the presence of each compound for percent inhibition and IC50 calculations.
The percent inhibition of interleukin 13 (IL-13) production for a compound at various concentrations was calculated according to the following formula, [1-(IL-13 production in the presence of compound)/(IL-13 production in the presence of 0.15% DMSO)]×100. The IC50 value, defined as the concentration of a compound that is required for 50% inhibition of IL-13 production, was calculated by fitting the percent inhibition data for 7 concentrations to a sigmoidal dose-response (4 parameter logistic) model in the XLfit® software Excel add-in program [ID Business Solutions Ltd., model 205, where F(x)=(A+(B−A)/(1+((C/x)̂D)))].

Row | SMILES | IC50
1 | CCOc1cc(C(F)(F)F)cc(S(=O)(=O)N(C)[C@@H]2CCCc3c(OCC(=O)O)cccc32)c1 [Example 9-2, {(R)-5-[(3-ethoxy-5-trifluoromethyl-benzenesulfonyl)-methyl-amino]-5,6,7,8-tetrahydro-naphthalen-1-yloxy}-acetic acid] | 4.84 µM
2 | CN([C@@H]1CCCc2c(OCC(=O)O)cccc21)S(=O)(=O)c1cc(F)cc(C(F)(F)F)c1 [Example 1-1, {(R)-5-[(3-fluoro-5-trifluoromethyl-benzenesulfonyl)-methyl-amino]-5,6,7,8-tetrahydro-naphthalen-1-yloxy}-acetic acid] | 4.65 µM
3 | CN([C@@H]1CCCc2c(OCC(=O)O)cccc21)S(=O)(=O)c1cc(OC2CCCC2)cc(C(F)(F)F)c1 [Example 9-3, {(R)-5-[(3-cyclopentyloxy-5-trifluoromethyl-benzenesulfonyl)-methyl-amino]-5,6,7,8-tetrahydro-naphthalen-1-yloxy}-acetic acid] | 5.09 µM
4 | CCN(CC)c1cc(C(F)(F)F)cc(S(=O)(=O)N(C)[C@@H]2CCCc3c(OCC(=O)O)cccc32)c1 [Example 4-2, {(R)-5-[(3-diethylamino-5-trifluoromethyl-benzenesulfonyl)-methyl-amino]-5,6,7,8-tetrahydro-naphthalen-1-yloxy}-acetic acid] | 3.01 µM

From patent US20100041760A1, “MONOARYL AMINOTETRALINES” (priority 2008, published 2010)
